1 compound from paper PMC6529423, “The extracellular gate shapes the energy profile of an ABC exporter” (Nature Communications, 2019) can be followed below.

In the assay the target is T1, EfrEF (Enterococcus faecalis, UniProt Q832J9+Q832K0).
T1 construct: gene EF_2226; heterodimeric ABC exporter, expressed in Lactococcus lactis NZ9000 from pNZ8048NH3, purified in DDM, reconstituted in proteoliposomes
As to the kind of experiment: ATPase stimulation in proteoliposomes; also ethidium efflux from L. lactis cells. It counts as biochemical. The settings on record: 1 mM ATP, 10 mM MgSO4, 50 mM HEPES pH 7.0, 30 °C; stimulator of ATPase.

T1 sequence (Q832K0 entry or part of it): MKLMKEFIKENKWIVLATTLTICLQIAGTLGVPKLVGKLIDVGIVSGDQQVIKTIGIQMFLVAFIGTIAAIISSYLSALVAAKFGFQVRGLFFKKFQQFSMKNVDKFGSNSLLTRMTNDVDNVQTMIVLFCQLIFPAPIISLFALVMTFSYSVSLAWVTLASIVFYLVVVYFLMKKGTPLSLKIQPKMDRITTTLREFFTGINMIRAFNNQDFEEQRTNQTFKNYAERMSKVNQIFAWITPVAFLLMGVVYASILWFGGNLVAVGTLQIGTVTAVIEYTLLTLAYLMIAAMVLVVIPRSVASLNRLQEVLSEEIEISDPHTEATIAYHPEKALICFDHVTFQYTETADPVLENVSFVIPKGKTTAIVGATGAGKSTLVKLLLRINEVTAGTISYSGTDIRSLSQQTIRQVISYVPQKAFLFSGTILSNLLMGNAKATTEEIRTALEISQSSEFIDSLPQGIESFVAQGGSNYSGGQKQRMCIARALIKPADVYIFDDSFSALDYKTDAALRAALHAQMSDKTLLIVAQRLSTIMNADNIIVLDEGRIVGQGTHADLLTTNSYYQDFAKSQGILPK
T1 sequence (Q832J9 entry or part of it): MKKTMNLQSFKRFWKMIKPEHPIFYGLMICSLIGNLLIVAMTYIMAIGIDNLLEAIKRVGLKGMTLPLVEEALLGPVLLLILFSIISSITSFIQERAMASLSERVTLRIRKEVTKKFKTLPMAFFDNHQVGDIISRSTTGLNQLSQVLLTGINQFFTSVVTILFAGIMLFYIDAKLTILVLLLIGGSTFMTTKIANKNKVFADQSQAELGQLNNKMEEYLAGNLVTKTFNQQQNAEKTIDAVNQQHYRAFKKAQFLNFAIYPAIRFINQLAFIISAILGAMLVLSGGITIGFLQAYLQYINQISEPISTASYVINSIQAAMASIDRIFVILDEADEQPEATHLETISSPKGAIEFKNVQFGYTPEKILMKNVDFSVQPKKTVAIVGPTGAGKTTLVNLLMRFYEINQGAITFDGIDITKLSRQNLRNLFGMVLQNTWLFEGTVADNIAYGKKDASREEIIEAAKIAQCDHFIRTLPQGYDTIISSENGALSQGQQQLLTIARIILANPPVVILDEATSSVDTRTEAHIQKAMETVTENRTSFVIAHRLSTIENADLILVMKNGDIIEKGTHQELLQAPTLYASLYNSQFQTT

As for `CC[n+]1c(-c2ccccc2)c2cc(N)ccc2c2ccc(N)cc21` [ethidium], the “ATPase stimulation in proteoliposomes; also ethidium efflux from L. lactis cells” value is “Wild-type EfrEF efficiently expels ethidium from the cell”.
